Experiment: xn = mol fraction of the nth substance listed
Settings: 298.15 K, Liquid

CCCCCl [1-chlorobutane] + CN1CCCC1=O
mass density [kg/m3]
Settings | x2 = 0.1004 | x2 = 0.2002 | x2 = 0.2974 | x2 = 0.4 | x2 = 0.5052 | x2 = 0.6019 | x2 = 0.7039 | x2 = 0.8011 | x2 = 0.9002
100 kPa | 896.6 | 912 | 926.8 | 942.2 | 957.5 | 971.7 | 986.2 | 1000.1 | 1014.3
500 kPa | 896.9 | – | 927.1 | 942.5 | 957.8 | 972 | 986.5 | 1000.4 | 1014.5
600 kPa | – | 912.3 | – | – | – | – | – | – | –
1000 kPa | 897.4 | 912.7 | 927.5 | 942.8 | 958.2 | 972.2 | 986.8 | 1000.6 | 1014.8
1500 kPa | 897.9 | 913.2 | 927.9 | 943.2 | 958.6 | 972.6 | 987.1 | 1000.9 | 1015.1
2000 kPa | 898.4 | 913.6 | 928.4 | 943.6 | 958.9 | 973 | 987.4 | 1001.2 | 1015.3
2400 kPa | – | – | 928.7 | – | – | 973.3 | – | – | –
2500 kPa | 898.9 | 914.1 | – | 944 | 959.3 | – | 987.7 | 1001.6 | 1015.6
3000 kPa | 899.3 | 914.6 | 929.2 | 944.4 | 959.6 | 973.6 | 988 | 1001.8 | 1015.9
3500 kPa | 899.8 | 915 | 929.6 | 944.8 | 960 | 973.9 | 988.4 | 1002.2 | 1016.2
3900 kPa | – | – | – | – | – | 974.2 | – | – | –
4000 kPa | 900.3 | 915.4 | 930 | 945.1 | 960.3 | – | 988.7 | 1002.4 | 1016.5
4400 kPa | 900.7 | – | – | – | – | – | – | – | 1016.7
4500 kPa | – | 915.9 | 930.4 | 945.6 | 960.7 | 974.6 | 989 | 1002.7 | –
4900 kPa | 901.2 | – | – | – | – | – | – | – | –
5000 kPa | – | 916.3 | 930.8 | 945.9 | 961.1 | – | 989.3 | 1003 | 1017
5100 kPa | – | – | – | – | – | 975 | – | – | –
5400 kPa | 901.7 | – | – | – | – | 975.2 | – | – | –
5500 kPa | – | 916.8 | 931.2 | 946.3 | 961.4 | – | 989.6 | 1003.3 | 1017.3
5900 kPa | – | 917.1 | – | – | – | – | – | – | –
6000 kPa | 902.1 | – | 931.7 | 946.7 | 961.8 | 975.6 | 990 | 1003.6 | 1017.6
6500 kPa | 902.6 | 917.6 | 932.1 | 947.1 | 962.2 | 976 | 990.2 | 1003.9 | 1017.8
6900 kPa | 903 | – | 932.5 | – | – | – | – | – | –
7000 kPa | – | 918.1 | – | 947.5 | 962.5 | 976.3 | 990.6 | 1004.2 | 1018.2
7500 kPa | 903.5 | 918.5 | 932.8 | – | 962.9 | 976.6 | 990.9 | 1004.5 | 1018.4
7600 kPa | – | – | – | 948 | – | – | – | – | –
7900 kPa | 903.9 | – | – | – | – | – | 991.1 | – | –
8000 kPa | – | 918.9 | 933.3 | 948.3 | 963.2 | 976.9 | – | 1004.8 | 1018.7
8400 kPa | – | 919.3 | – | – | – | – | – | – | –
8500 kPa | 904.4 | – | 933.6 | 948.6 | 963.6 | 977.2 | 991.5 | 1005.1 | 1019
8900 kPa | – | 919.7 | – | – | – | 977.5 | 991.7 | – | –
9000 kPa | 904.9 | – | 933.9 | 949 | 963.9 | – | – | 1005.4 | 1019.2
9400 kPa | – | – | 934.3 | – | – | – | 992 | – | –
9500 kPa | 905.3 | 920.2 | – | 949.3 | 964.2 | 977.9 | – | 1005.6 | 1019.5
9900 kPa | – | – | 934.8 | – | – | – | – | – | –
10000 kPa | 905.8 | 920.7 | – | 949.8 | 964.7 | 978.3 | 992.4 | – | 1019.8
10100 kPa | – | – | – | – | – | – | – | 1006.1 | –
10400 kPa | – | – | – | 950.1 | – | – | – | – | –
10500 kPa | – | 921.1 | 935.3 | – | 965 | 978.6 | 992.7 | 1006.3 | 1020.1
10600 kPa | 906.4 | – | – | – | – | – | – | – | –
10900 kPa | 906.7 | – | – | 950.4 | – | – | – | – | –
11000 kPa | – | 921.5 | 935.6 | – | 965.4 | 978.9 | 993 | 1006.6 | 1020.4
11400 kPa | – | 921.9 | – | – | – | – | 993.3 | – | –
11500 kPa | 907.2 | – | 936 | 950.8 | 965.7 | 979.3 | – | 1006.8 | 1020.6
11900 kPa | – | – | 936.3 | – | – | – | – | – | –
12000 kPa | 907.6 | 922.4 | – | 951.2 | 966 | 979.6 | 993.6 | 1007.1 | 1020.9
12400 kPa | – | – | – | 951.6 | – | 979.8 | 993.9 | – | –
12500 kPa | 908.1 | 922.8 | 936.8 | – | 966.4 | – | – | 1007.4 | 1021.1
12900 kPa | – | – | – | – | – | – | – | 1007.6 | –
13000 kPa | 908.5 | 923.2 | 937.1 | 951.9 | 966.7 | 980.2 | 994.2 | – | 1021.4
13400 kPa | – | – | – | – | – | – | 994.5 | – | –
13500 kPa | 908.9 | 923.6 | 937.6 | 952.3 | 967 | – | – | 1008 | 1021.7
13600 kPa | – | – | – | – | – | 980.6 | – | – | –
13900 kPa | – | – | – | 952.7 | – | – | – | – | –
14000 kPa | – | – | 937.8 | – | 967.4 | – | 994.8 | 1008.2 | 1022
14100 kPa | 909.5 | 924.1 | – | – | – | 981 | – | – | –
14400 kPa | – | – | – | 953 | 967.7 | – | – | – | 1022.2
14500 kPa | 909.8 | 924.4 | 938.2 | – | – | 981.1 | 995.1 | 1008.5 | –
15000 kPa | 910.2 | 924.7 | 938.6 | 953.4 | 968 | 981.5 | – | 1008.8 | 1022.5
15100 kPa | – | – | – | – | – | – | 995.6 | – | –
15500 kPa | 910.7 | 925.2 | 939 | 953.8 | – | 981.8 | 995.7 | 1009.1 | –
15600 kPa | – | – | – | – | 968.5 | – | – | – | 1022.8
16000 kPa | 911.1 | 925.6 | 939.4 | 954.1 | 968.7 | 982.1 | 996 | 1009.3 | 1023
16400 kPa | – | 926 | 939.7 | – | – | 982.4 | – | – | –
16500 kPa | 911.5 | – | – | 954.4 | 969.1 | – | 996.3 | 1009.6 | 1023.2
16900 kPa | – | – | 940.1 | – | – | – | – | – | –
17000 kPa | 911.9 | 926.3 | – | 954.8 | 969.4 | 982.8 | 996.6 | 1009.9 | 1023.4
17400 kPa | – | – | 940.5 | – | – | – | – | 1010.2 | –
17500 kPa | 912.3 | 926.7 | – | 955.2 | 969.7 | 983 | 996.8 | – | 1023.8
18000 kPa | 912.7 | 927.1 | 940.8 | – | 970.1 | – | 997.2 | 1010.5 | 1024
18100 kPa | – | – | – | 955.6 | – | 983.4 | – | – | –
18500 kPa | 913.1 | 927.6 | – | 955.8 | 970.3 | 983.6 | 997.5 | – | 1024.2
18600 kPa | – | – | 941.4 | – | – | – | – | 1010.8 | –
19000 kPa | 913.6 | 928 | 941.7 | 956.2 | 970.8 | 984 | – | 1011 | 1024.5
19100 kPa | – | – | – | – | – | – | 997.9 | – | –
19400 kPa | 913.9 | – | – | – | – | – | – | – | –
19500 kPa | – | 928.3 | 942.1 | 956.6 | 971 | 984.3 | 998 | 1011.3 | 1024.8
20000 kPa | 914.5 | 928.7 | 942.6 | 957 | 971.4 | 984.6 | 998.4 | 1011.6 | 1025.1
